# Reference: patent US11690389B2, “Red beet pigment composition” (priority 2017, dated 2023)
# Where two headings read alike, the source gives them in different places.
# Key:
# [1] = tested on: red beet plants (Monty Rz and Belushi Rz); test: Field trials harvested at a single time-point: foliar spraying of red beet plants with egc, betalain pigments and yield data of roots; assay type: in vivo, red beet (Beta vulgaris L. spp. vulgaris); conditions: for Betalains (g kg^−1 DM) / Betalains (mg kg^−1 FW) Bn / Betalains (mg kg^−1 FW) Vx / Betalains:TSS / Bn:Vx: egc 360 g ha^−1 foliar, roots 16 weeks after sowing
# Experimental: (§1) Field trials were conducted at the Hoejbakkegaard (latitude 55, […]; Denmark) in 2015, where three-row plots were arranged in randomized block designs with three replicates. Rainfall was complemented by irrigation throughout red beet growth to avoid water stress. Foliar applications of an ethylene generating compound (egc), 2-chloroethylphosphonic acid (CERONE® brand ETHEPHON, 39.9% active ingredient, Bayer Crop Science, Leverkusen, Germany), at a concentration of 360 g ha^−1 were performed with a CO2 backpack spaced 50 cm apart, using manual spraying equipment designed for agricultural use. Egc application began 5 weeks after sowing and continued every 3 weeks, with a total of five applications. Plants were cultivated in loamy soil using techniques recommended for cultivation and plant protection in red beet crop production.
# Trial 1. Plants were grown in plots consisted of 4.5 m-long rows, with a single harvest from the middle part of each row performed 16 weeks after sowing.
# (§2) Biological replicates consisting of twenty beetroots were washed and split lengthwise. Of these, one pool of halves was ground and homogenized in a 3% sulfuric acid solution (1/1, w/w), using a Waring® two-speed commercial blender (VWR—Bie & Berntsen, Herlev, Denmark). The resulting fine homogenate was subsequently mixed with demineralized water (1/2, w/w) and vortexed. Finally, the sample was centrifuged for 20 min at 4500 rpm, and the supernatant (extract) was utilized for further analyses.
# (§3) Bn and Vx were measured spectrophotometrically. The beetroot extract was diluted to a proper concentration in 33 mM KH2PO4 (pH 6.5), and the absorption was measured at 476 nm and 538 nm for Bn and Vx, respectively, using a UV-visible spectrophotometer (Thermo Scientific Evolution™ 220, Waltham, Mass., USA). Bn and Vx concentrations were expressed in mg kg^−1 fresh weight (FW), using the corresponding absorbance, molecular weight and extinction coefficient for Bn and Vx.
# TSS was measured with a manual refractometer (Refracto 30PX/GS Mettler-Toledo Inc., OH, USA) operating in the 0% to 85% Brix range. The beetroot extract was filtered through 0.45 μm membrane filters, and Brix measurements were performed using 1 mL of the filtrate.
# DM was determined after samples were dried to a constant weight at 100° C. for 24 h, based on the difference in mass between the fresh and dry samples. […] was then expressed as a percentage of the dry matter.
# beet root = conditions: 50 ppm; cited from earlier work
# A. Mangostanus seedlings = conditions: cited from earlier work
# [2] = tested on: red beet plants (Monty Rz and Belushi Rz); test: Field trial with several harvests: betalain accumulation during root growth after foliar spraying with egc; assay type: in vivo, red beet (Beta vulgaris L. spp. vulgaris); conditions: for Bn content at peak: 9 weeks after sowing as printed; for Betalains (mg kg^−1 FW) Bn / Betalains (mg kg^−1 FW) Vx / Bn:Vx: egc 360 g ha^−1
# Experimental: as §1
# Trial 2. Plots consisted of 12 m-long rows, with several harvests from separate row segments performed during growth (3, 6, 9, 12, 15 and 18 weeks after sowing). For further analyses, biological replicates consisted of 20 whole beetroots harvested per plot.
# as §2
# as §3, with “Vx. […]” for “Vx.”
# [3] = Belushi Rz, 3 weeks after sowing
# [4] = Belushi Rz, 6 weeks after sowing
# [5] = Belushi Rz, 9 weeks after sowing
# [6] = Belushi Rz, 12 weeks after sowing
# [7] = Belushi Rz, 15 weeks after sowing
# [8] = Belushi Rz, 18 weeks after sowing
# [9] = Monty Rz, 12 weeks after sowing
# [10] = Monty Rz, 15 weeks after sowing
# [11] = Monty Rz, 18 weeks after sowing
smiles,measurement,setting,value
"O=P(O)(O)CCCl [egc, 2-chloroethylphosphonic acid]","Vx content of roots, untreated versus treated plants",[1]; 16-week-old plants,did not vary significantly
same,increase of Bn:Vx compared with untreated plants,[1]; Belushi Rz,36%
same,increase of betalains:TSS in average,[1]; Belushi Rz,30%
same,"increase of root Bn content compared with untreated plants, in average",[1]; Belushi Rz,20%
same,mean Bn:Vx,"[1]; Belushi Rz, egc treated beetroots",6.1
same,Betalains (g kg^−1 DM),"[1]; Field trial 1, Belushi Rz",17.4 g kg^−1 DM
same,Betalains (mg kg^−1 FW) Bn,"[1]; Field trial 1, Belushi Rz",1575 mg kg^−1 FW
same,Betalains (mg kg^−1 FW) Vx,"[1]; Field trial 1, Belushi Rz",274 mg kg^−1 FW
same,Betalains:TSS,"[1]; Field trial 1, Belushi Rz",0.126
same,Bn:Vx,"[1]; Field trial 1, Belushi Rz",5.82
same,Betalains (g kg^−1 DM),"[1]; Field trial 1, Monty Rz",21.9 g kg^−1 DM
same,Betalains (mg kg^−1 FW) Bn,"[1]; Field trial 1, Monty Rz",2166 mg kg^−1 FW
same,Betalains (mg kg^−1 FW) Vx,"[1]; Field trial 1, Monty Rz",386 mg kg^−1 FW
same,Betalains:TSS,"[1]; Field trial 1, Monty Rz",0.154
same,Bn:Vx,"[1]; Field trial 1, Monty Rz",5.79
same,Betalains (g kg^−1 DM),"[1]; Field trial 2, Belushi Rz",15.0 g kg^−1 DM
same,Betalains (mg kg^−1 FW) Bn,"[1]; Field trial 2, Belushi Rz",1584 mg kg^−1 FW
same,Betalains (mg kg^−1 FW) Vx,"[1]; Field trial 2, Belushi Rz",247 mg kg^−1 FW
same,Betalains:TSS,"[1]; Field trial 2, Belushi Rz",0.088
same,Bn:Vx,"[1]; Field trial 2, Belushi Rz",6.42
same,Betalains (g kg^−1 DM),"[1]; Field trial 2, Monty Rz",21.5 g kg^−1 DM
same,Betalains (mg kg^−1 FW) Bn,"[1]; Field trial 2, Monty Rz",2458 mg kg^−1 FW
same,Betalains (mg kg^−1 FW) Vx,"[1]; Field trial 2, Monty Rz",364 mg kg^−1 FW
same,Betalains:TSS,"[1]; Field trial 2, Monty Rz",0.132
same,Bn:Vx,"[1]; Field trial 2, Monty Rz",6.88
same,increase of Bn:Vx compared with untreated plants,[1]; Monty Rz,34%
same,increase of betalains:TSS in average,[1]; Monty Rz,37%
same,increase of root Bn content compared with untreated plants,[1]; Monty Rz,25%
same,mean Bn:Vx,"[1]; Monty Rz, egc treated beetroots",6.3
same,Bn:Vn upon ethephon treatment,[1]; both cultivars,increased substantially
same,effect on beetroot yield in tons per hectare,[1]; both cultivars,no significant effects
same,effect on root FW,[1]; both cultivars,no significant effects
same,Bn content of roots versus untreated plants,"[1]; both cultivars, 16-week-old plants",increased
same,DM (dry matter) of beetroots versus untreated roots,[1]; egc treated beetroots,lower
same,betalain content versus untreated roots,[1]; egc treated beetroots,higher
same,mean TSS versus untreated roots,[1]; egc treated beetroots,lower
same,beta cyanin efflux,beet root,promoted
same,pigment accumulation in seedlings,A. Mangostanus seedlings; 0.1 mM,did not elicit pigment accumulation
same,pigment accumulation in seedlings,A. Mangostanus seedlings; 1 mM,did not elicit pigment accumulation
same,pigment accumulation in seedlings,A. Mangostanus seedlings; 5 mM,seemed to have an effect
same,"Bn:Vx higher in egc treated plants, average over all harvests",[2]; Belushi Rz,35%
same,"higher Bn content than untreated, average of all harvests",[2]; Belushi Rz,10%
same,"mean root Vx, less in average",[2]; Belushi Rz,20%
same,Bn content at peak,[2]; Belushi Rz,2577 mg kg^−1 FW
same,Betalains (mg kg^−1 FW) Bn,[2]; [3],945 mg kg^−1 FW
same,Betalains (mg kg^−1 FW) Vx,[2]; [3],24.3 mg kg^−1 FW
same,Bn:Vx,[2]; [3],39.0
same,Betalains (mg kg^−1 FW) Bn,[2]; [4],2577 mg kg^−1 FW
same,Betalains (mg kg^−1 FW) Vx,[2]; [4],58.4 mg kg^−1 FW
same,Bn:Vx,[2]; [4],45.7
same,Betalains (mg kg^−1 FW) Bn,[2]; [5],2144 mg kg^−1 FW
same,Betalains (mg kg^−1 FW) Vx,[2]; [5],128 mg kg^−1 FW
same,Bn:Vx,[2]; [5],17.2
same,Betalains (mg kg^−1 FW) Bn,[2]; [6],1683 mg kg^−1 FW
same,Betalains (mg kg^−1 FW) Vx,[2]; [6],157 mg kg^−1 FW
same,Bn:Vx,[2]; [6],11.1
same,Betalains (mg kg^−1 FW) Bn,[2]; [7],1442 mg kg^−1 FW
same,Betalains (mg kg^−1 FW) Vx,[2]; [7],211 mg kg^−1 FW
same,Bn:Vx,[2]; [7],6.84
same,Betalains (mg kg^−1 FW) Bn,[2]; [8],1369 mg kg^−1 FW
same,Betalains (mg kg^−1 FW) Vx,[2]; [8],286 mg kg^−1 FW
same,Bn:Vx,[2]; [8],4.85
same,"Bn:Vx higher in egc treated plants, average over all harvests",[2]; Monty Rz,17%
same,"higher Bn content than untreated, average of all harvests",[2]; Monty Rz,17%
same,"mean root Vx, less in average",[2]; Monty Rz,5%
same,Bn content at peak,[2]; Monty Rz,2867 mg kg^−1 FW
same,Betalains (mg kg^−1 FW) Bn,"[2]; Monty Rz, 3 weeks after sowing",1343 mg kg^−1 FW
same,Betalains (mg kg^−1 FW) Vx,"[2]; Monty Rz, 3 weeks after sowing",32.3 mg kg^−1 FW
same,Bn:Vx,"[2]; Monty Rz, 3 weeks after sowing",41.6
same,Betalains (mg kg^−1 FW) Bn,"[2]; Monty Rz, 6 weeks after sowing",2867 mg kg^−1 FW
same,Betalains (mg kg^−1 FW) Vx,"[2]; Monty Rz, 6 weeks after sowing",62.3 mg kg^−1 FW
same,Bn:Vx,"[2]; Monty Rz, 6 weeks after sowing",46.5
same,Betalains (mg kg^−1 FW) Bn,"[2]; Monty Rz, 9 weeks after sowing",2685 mg kg^−1 FW
same,Betalains (mg kg^−1 FW) Vx,"[2]; Monty Rz, 9 weeks after sowing",180 mg kg^−1 FW
same,Bn:Vx,"[2]; Monty Rz, 9 weeks after sowing",14.9
same,Betalains (mg kg^−1 FW) Bn,[2]; [9],2475 mg kg^−1 FW
same,Betalains (mg kg^−1 FW) Vx,[2]; [9],239 mg kg^−1 FW
same,Bn:Vx,[2]; [9],10.5
same,Betalains (mg kg^−1 FW) Bn,[2]; [10],2274 mg kg^−1 FW
same,Betalains (mg kg^−1 FW) Vx,[2]; [10],304 mg kg^−1 FW
same,Bn:Vx,[2]; [10],7.56
same,Betalains (mg kg^−1 FW) Bn,[2]; [11],2219 mg kg^−1 FW
same,Betalains (mg kg^−1 FW) Vx,[2]; [11],455 mg kg^−1 FW
same,Bn:Vx,[2]; [11],4.89
same,highest Bn:Vx,"[2]; both cultivars, 6 weeks after sowing",46
same,"root mass and diameter, untreated versus treated red beets","[2]; both cultivars, at each harvest point, 360 g egc ha−1",no significant differences
